Experiments:
FL5.12/Bcl-2 cells = assay: FL5.12/Bcl-2 cell viability assay under IL-3 withdrawal (CellTitre Glo); format: cell-based, murine; conditions: Mus musculus, IL-3 withdrawn 48 hrs, then 24 hrs with compound
How it was run: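 Viability measured by CellTitre Glo after FL5.12/Bcl-2 murine cells, starved of IL-3 for 48 hrs, were treated with compounds for another 24 hrs. Killing reflects inhibition of Bcl-2 sequestration of Bim and Puma.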

GST-Bcl-2 = GST-Bcl-2 (Homo sapiens, UniProt P10415); assay: TR-FRET binding assay, GST-Bcl-2 with F-Bak peptide probe; conditions: TR-FRET Binding Affinity, GST-Bcl-2, F-Bak peptide probe
Chain of GST-Bcl-2 (P10415 whole entry): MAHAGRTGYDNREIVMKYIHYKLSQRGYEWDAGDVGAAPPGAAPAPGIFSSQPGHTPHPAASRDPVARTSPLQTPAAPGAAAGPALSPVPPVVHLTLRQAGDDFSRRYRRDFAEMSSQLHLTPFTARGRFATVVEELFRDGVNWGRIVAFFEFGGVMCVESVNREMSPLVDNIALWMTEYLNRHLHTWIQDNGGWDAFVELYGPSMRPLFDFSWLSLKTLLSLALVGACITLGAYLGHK
How it was run: (§1)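 Compounds were serially diluted in DMSO from a 50 μM starting solution (2× the starting concentration; 10% DMSO). Plates were incubated for 3 h at room temperature, and TR-FRET was read with 340/35 nm excitation and emission at 520/525 nm (F-Bak) and 495/510 nm (Tb antibody). Ki values were calculated using Wang's competitive-binding equation.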

GST-Bcl-XL = GST-Bcl-XL (Homo sapiens, UniProt Q07817); assay: TR-FRET binding assay, GST-Bcl-XL with F-Bak peptide probe; conditions: TR-FRET Binding Affinity, GST-Bcl-XL, F-Bak peptide probe
Chain of GST-Bcl-XL (Q07817 whole entry): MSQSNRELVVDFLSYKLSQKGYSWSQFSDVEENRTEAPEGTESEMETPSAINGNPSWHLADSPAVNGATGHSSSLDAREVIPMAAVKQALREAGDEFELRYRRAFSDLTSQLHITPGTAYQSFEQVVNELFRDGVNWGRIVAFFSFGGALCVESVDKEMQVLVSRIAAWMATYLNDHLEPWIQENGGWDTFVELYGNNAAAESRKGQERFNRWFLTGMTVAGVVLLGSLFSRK
How it was run: as §1

CC1(C)CCC(CN2CCN(c3ccc(C(=O)NS(=O)(=O)c4ccc(NCc5cncs5)c([N+](=O)[O-])c4)c(Oc4ccc5[nH]ccc5c4)c3)CC2)=C(c2ccc(Cl)cc2)C1 [Example 288, 4-(4-{[2-(4-chlorophenyl)-4,4-dimethylcyclohex-1-en-1-yl]methyl}piperazin-1-yl)-2-(1H-indol-5-yloxy)-N-({3-nitro-4-[(1,3-thiazol-5-ylmethyl)amino]phenyl}sulfonyl)benzamide]
EC50 (FL5.12/Bcl-2 cells): 64.3 nM | Ki (GST-Bcl-2): 0.177 nM | Ki (GST-Bcl-XL): > 660 nM

CC1(C)CCC(CN2CCN(c3ccc(C(=O)NS(=O)(=O)c4ccc(OCC5CCOCC5)c([N+](=O)[O-])c4)c(Oc4cccc5[nH]ccc45)c3)CC2)=C(c2ccc(Cl)cc2)C1 [Example 289, 4-(4-{[2-(4-chlorophenyl)-4,4-dimethylcyclohex-1-en-1-yl]methyl}piperazin-1-yl)-2-(1H-indol-4-yloxy)-N-{[3-nitro-4-(tetrahydro-2H-pyran-4-ylmethoxy)phenyl]sulfonyl}benzamide]
EC50 (FL5.12/Bcl-2 cells): 27.4 nM | Ki (GST-Bcl-2): 0.112 nM | Ki (GST-Bcl-XL): > 660 nM

CC1(C)CCC(c2ccc(Cl)cc2)=C(CN2CCN(c3ccc(C(=O)NS(=O)(=O)c4ccc(NCC5CCOCC5)c([N+](=O)[O-])c4)c(Oc4ccc5[nH]ccc5c4)c3)CC2)C1 [Example 290, 4-(4-{[2-(4-chlorophenyl)-5,5-dimethylcyclohex-1-en-1-yl]methyl}piperazin-1-yl)-2-(1H-indol-5-yloxy)-N-({3-nitro-4-[(tetrahydro-2H-pyran-4-ylmethyl)amino]phenyl}sulfonyl)benzamide]
EC50 (FL5.12/Bcl-2 cells): 44.7 nM | Ki (GST-Bcl-2): 0.365 nM | Ki (GST-Bcl-XL): > 660 nM

CC1(C)CCC(CN2CCN(c3ccc(C(=O)NS(=O)(=O)c4ccc(NCCC5CCOCC5)c([N+](=O)[O-])c4)c(Oc4ccc5[nH]ccc5c4)c3)CC2)=C(c2ccc(Cl)cc2)C1 [Example 291, 4-(4-{[2-(4-chlorophenyl)-4,4-dimethylcyclohex-1-en-1-yl]methyl}piperazin-1-yl)-2-(1H-indol-5-yloxy)-N-({3-nitro-4-[(2-tetrahydro-2H-pyran-4-ylethyl)amino]phenyl}sulfonyl)benzamide]
EC50 (FL5.12/Bcl-2 cells): 58 nM | Ki (GST-Bcl-2): 0.56 nM | Ki (GST-Bcl-XL): > 660 nM

CC1(C)CCC(CN2CCN(c3ccc(C(=O)NS(=O)(=O)c4ccc(NCCOC(F)(F)F)c([N+](=O)[O-])c4)c(Oc4cccc5[nH]ccc45)c3)CC2)=C(c2ccc(Cl)cc2)C1 [Example 292, 4-(4-{[2-(4-chlorophenyl)-4,4-dimethylcyclohex-1-en-1-yl]methyl}piperazin-1-yl)-2-(1H-indol-4-yloxy)-N-[(3-nitro-4-{[2-(trifluoromethoxy)ethyl]amino}phenyl)sulfonyl]benzamide]
EC50 (FL5.12/Bcl-2 cells): 69.2 nM | Ki (GST-Bcl-2): 0.598 nM | Ki (GST-Bcl-XL): > 660 nM

COCCOCCNc1ccc(S(=O)(=O)NC(=O)c2ccc(N3CCN(CC4=C(c5ccc(Cl)cc5)CC(C)(C)CC4)CC3)cc2Oc2cccc3[nH]ccc23)cc1[N+](=O)[O-] [Example 293, 4-(4-{[2-(4-chlorophenyl)-4,4-dimethylcyclohex-1-en-1-yl]methyl}piperazin-1-yl)-2-(1H-indol-4-yloxy)-N-[(4-{[2-(2-methoxyethoxy)ethyl]amino}-3-nitrophenyl)sulfonyl]benzamide]
EC50 (FL5.12/Bcl-2 cells): 68.1 nM | Ki (GST-Bcl-2): 0.516 nM | Ki (GST-Bcl-XL): 260 nM

CC1(C)CCC(CN2CCN(c3ccc(C(=O)NS(=O)(=O)c4ccc(NCCCS(C)(=O)=O)c([N+](=O)[O-])c4)c(Oc4cccc5[nH]ccc45)c3)CC2)=C(c2ccc(Cl)cc2)C1 [Example 294, 4-(4-{[2-(4-chlorophenyl)-4,4-dimethylcyclohex-1-en-1-yl]methyl}piperazin-1-yl)-2-(1H-indol-4-yloxy)-N-[(4-{[3-(methylsulfonyl)propyl]amino}-3-nitrophenyl)sulfonyl]benzamide]
EC50 (FL5.12/Bcl-2 cells): 59.8 nM | Ki (GST-Bcl-2): 0.258 nM | Ki (GST-Bcl-XL): 65.1 nM

CC1(C)CCC(CN2CCN(c3ccc(C(=O)NS(=O)(=O)c4ccc(NCCCN5CCS(=O)(=O)CC5)c([N+](=O)[O-])c4)c(Oc4cccc5[nH]ccc45)c3)CC2)=C(c2ccc(Cl)cc2)C1 [Example 295, 4-(4-{[2-(4-chlorophenyl)-4,4-dimethylcyclohex-1-en-1-yl]methyl}piperazin-1-yl)-N-[(4-{[3-(1,1-dioxidothiomorpholin-4-yl)propyl]amino}-3-nitrophenyl)sulfonyl]-2-(1H-indol-4-yloxy)benzamide]
EC50 (FL5.12/Bcl-2 cells): 46.3 nM | Ki (GST-Bcl-2): 0.183 nM | Ki (GST-Bcl-XL): 110 nM

CC1(C)CCC(CN2CCN(c3ccc(C(=O)NS(=O)(=O)c4ccc(CCC5CCOCC5)c([N+](=O)[O-])c4)c(Oc4ccc5[nH]ccc5c4)c3)CC2)=C(c2ccc(Cl)cc2)C1 [Example 296, 4-(4-{[2-(4-chlorophenyl)-4,4-dimethylcyclohex-1-en-1-yl]methyl}piperazin-1-yl)-2-(1H-indol-5-yloxy)-N-{[3-nitro-4-(2-tetrahydro-2H-pyran-4-ylethyl)phenyl]sulfonyl}benzamide]
EC50 (FL5.12/Bcl-2 cells): 182 nM | Ki (GST-Bcl-2): 0.651 nM | Ki (GST-Bcl-XL): > 660 nM

COCCOCCNc1ccc(S(=O)(=O)NC(=O)c2ccc(N3CCN(CC4=C(c5ccc(Cl)cc5)CC(C)(C)CC4)CC3)cc2Oc2ccc3[nH]ccc3c2)cc1[N+](=O)[O-] [Example 298, 4-(4-{[2-(4-chlorophenyl)-4,4-dimethylcyclohex-1-en-1-yl]methyl}piperazin-1-yl)-2-(1H-indol-5-yloxy)-N-[(4-{[2-(2-methoxyethoxy)ethyl]amino}-3-nitrophenyl)sulfonyl]benzamide]
EC50 (FL5.12/Bcl-2 cells): 19.5 nM | Ki (GST-Bcl-2): 0.315 nM | Ki (GST-Bcl-XL): 446 nM

CC1(C)CCC(CN2CCN(c3ccc(C(=O)NS(=O)(=O)c4ccc(NC5CCS(=O)(=O)C5)c([N+](=O)[O-])c4)c(Oc4cccc5[nH]ccc45)c3)CC2)=C(c2ccc(Cl)cc2)C1 (stereo not drawn) [Example 299, 4-(4-{[2-(4-chlorophenyl)-4,4-dimethylcyclohex-1-en-1-yl]methyl}piperazin-1-yl)-N-({4-[(1,1-dioxidotetrahydrothien-3-yl)amino]-3-nitrophenyl}sulfonyl)-2-(1H-indol-4-yloxy)benzamide]
EC50 (FL5.12/Bcl-2 cells): 77.2 nM | Ki (GST-Bcl-2): 0.425 nM | Ki (GST-Bcl-XL): 246 nM

CC1(C)CCC(CN2CCN(c3ccc(C(=O)NS(=O)(=O)c4ccc(NCC5CCS(=O)(=O)CC5)c([N+](=O)[O-])c4)c(Oc4cccc5[nH]ccc45)c3)CC2)=C(c2ccc(Cl)cc2)C1 [Example 301, 4-(4-{[2-(4-chlorophenyl)-4,4-dimethylcyclohex-1-en-1-yl]methyl}piperazin-1-yl)-N-[(4-{[(1,1-dioxidotetrahydro-2H-thiopyran-4-yl)methyl]amino}-3-nitrophenyl)sulfonyl]-2-(1H-indol-4-yloxy)benzamide]
EC50 (FL5.12/Bcl-2 cells): 59.5 nM | Ki (GST-Bcl-2): 0.291 nM | Ki (GST-Bcl-XL): > 660 nM

CC1(C)CCC(CN2CCN(c3ccc(C(=O)NS(=O)(=O)c4ccc(NCC(F)F)c([N+](=O)[O-])c4)c(Oc4ccc5[nH]ccc5c4)c3)CC2)=C(c2ccc(Cl)cc2)C1 [Example 302, 4-(4-{[2-(4-chlorophenyl)-4,4-dimethylcyclohex-1-en-1-yl]methyl}piperazin-1-yl)-N-({4-[(2,2-difluoroethyl)amino]-3-nitrophenyl}sulfonyl)-2-(1H-indol-5-yloxy)benzamide]
EC50 (FL5.12/Bcl-2 cells): 32.4 nM | Ki (GST-Bcl-2): 0.504 nM | Ki (GST-Bcl-XL): > 660 nM
